Patent US20230265151A1, “GIP/GLP1 CO-AGONIST COMPOUNDS” (priority 2020, published 2023)
Read-outs that look alike come from different tables or passages of the source.

Tests used:
Assay type in all cases: cell-based
hGIPR = target: T1, hGIPR (Homo sapiens, UniProt P48546); experiment: Functional cAMP formation (HTRF) in HEK-293 clonal cells expressing hGIPR, 0.1% bovine casein, without or with 1.0% human serum albumin; settings: 37° C.; for Emax: HEK293, cAMP, percent of maximal response to GIP(1-42)NH2, read-out: hGIPR Emax, % ± SEM; for EC50: cAMP, read-out: hGIPR EC50, nM (SEM, n)
T1 construct: expressed in transfected cells
T1 sequence (P48546 22-466): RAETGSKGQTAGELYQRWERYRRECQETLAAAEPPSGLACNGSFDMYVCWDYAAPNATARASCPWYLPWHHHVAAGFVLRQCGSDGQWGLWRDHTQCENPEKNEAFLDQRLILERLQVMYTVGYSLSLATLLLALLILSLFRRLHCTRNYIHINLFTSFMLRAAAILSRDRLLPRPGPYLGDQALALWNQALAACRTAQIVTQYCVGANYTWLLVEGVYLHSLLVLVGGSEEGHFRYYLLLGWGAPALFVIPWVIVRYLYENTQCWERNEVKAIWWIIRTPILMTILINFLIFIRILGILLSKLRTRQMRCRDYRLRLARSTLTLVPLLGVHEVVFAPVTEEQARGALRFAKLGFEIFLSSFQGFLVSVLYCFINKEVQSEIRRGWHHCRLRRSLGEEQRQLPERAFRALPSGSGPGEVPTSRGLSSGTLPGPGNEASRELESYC
Procedure, shortened: (§1)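 Cells were stimulated with peptide for 30 min at 37° C, then intracellular cAMP was measured by competitive HTRF (665/620 nm ratio) and converted to nM using a cAMP standard curve. Relative EC50 and Emax came from four-parameter logistic fits of percent maximal response against peptide concentration.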

hGCGR = target: T2, hGCGR (Homo sapiens, UniProt P47871); experiment: Functional cAMP formation (HTRF) in HEK-293 clonal cells expressing hGCGR, 0.1% bovine casein, without or with 1.0% human serum albumin; settings: cAMP, 37° C., read-out: hGCGR EC50, nM (SEM, n)
T2 construct: expressed in transfected cells
T2 sequence (P47871 26-477): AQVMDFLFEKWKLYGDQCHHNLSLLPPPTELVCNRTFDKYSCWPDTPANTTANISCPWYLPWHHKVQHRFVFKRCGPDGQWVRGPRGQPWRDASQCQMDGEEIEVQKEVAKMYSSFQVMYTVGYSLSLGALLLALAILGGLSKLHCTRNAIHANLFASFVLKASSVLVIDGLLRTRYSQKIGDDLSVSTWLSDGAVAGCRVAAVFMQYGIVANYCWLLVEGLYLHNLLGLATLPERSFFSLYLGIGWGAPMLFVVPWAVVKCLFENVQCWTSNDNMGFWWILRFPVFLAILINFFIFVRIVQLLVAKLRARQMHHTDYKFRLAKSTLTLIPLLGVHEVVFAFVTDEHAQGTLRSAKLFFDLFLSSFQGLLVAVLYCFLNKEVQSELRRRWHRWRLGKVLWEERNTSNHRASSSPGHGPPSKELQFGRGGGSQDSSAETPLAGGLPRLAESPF
Procedure, shortened: as §1

hGLP-1R = hGLP-1R (Homo sapiens, UniProt P43220); experiment: Functional cAMP formation (HTRF) in HEK-293 clonal cells expressing hGLP-1R, 0.1% bovine casein, without or with 1.0% human serum albumin; set-up: expressed in transfected cells; settings: 37° C.; for Emax: HEK293, cAMP, percent of maximal response to GLP-1(7-36)NH2, read-out: hGLP-1R Emax, % ± SEM; for EC50: cAMP, read-out: hGLP-1R EC50, nM (SEM, n)
hGLP-1R, sequence (P43220 24-463): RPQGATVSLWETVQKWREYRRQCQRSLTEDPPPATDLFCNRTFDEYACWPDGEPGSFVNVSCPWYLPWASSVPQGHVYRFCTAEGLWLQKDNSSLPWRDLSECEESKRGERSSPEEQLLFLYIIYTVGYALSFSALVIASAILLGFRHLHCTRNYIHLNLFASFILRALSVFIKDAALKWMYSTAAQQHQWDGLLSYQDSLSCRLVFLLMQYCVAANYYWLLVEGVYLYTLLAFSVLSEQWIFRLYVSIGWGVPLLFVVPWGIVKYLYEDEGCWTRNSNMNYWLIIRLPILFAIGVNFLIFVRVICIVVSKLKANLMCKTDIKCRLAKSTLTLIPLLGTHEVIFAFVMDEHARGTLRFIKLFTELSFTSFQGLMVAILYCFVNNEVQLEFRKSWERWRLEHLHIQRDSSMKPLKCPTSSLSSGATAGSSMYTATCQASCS
Procedure, shortened: as §1

[1] = 0.1% bovine casein and 1.0% human serum albumin
[2] = 0.1% bovine casein, arithmetic mean
[3] = 0.1% bovine casein (no human serum albumin), geometric mean
[4] = 0.1% bovine casein and 1.0% human serum albumin, geometric mean (SEM, n)

Compound	Emax (hGIPR; [1]) [%]	Emax (hGIPR; [2]) [%]	EC50 (hGIPR; [3]) [nM]	EC50 (hGIPR; [4]) [nM]	EC50 (hGCGR; [3]) [nM]	EC50 (hGCGR; [4]) [nM]	Emax (hGLP-1R; [1]) [%]	EC50 (hGLP-1R; [3]) [nM]	EC50 (hGLP-1R; [4]) [nM]	Emax (hGLP-1R; [2]) [%]
CC[C@H](C)[C@H](NC(=O)[C@H](CCCN)NC(=O)[C@H](CC(=O)O)NC(=O)[C@H](CC(C)C)NC(=O)[C@](C)(CC(C)C)NC(=O)[C@@H](NC(=O)C(C)(C)NC(=O)[C@H](Cc1ccc(O)cc1)NC(=O)[C@H](CC(=O)O)NC(=O)[C@H](CO)NC(=O)[C@@H](NC(=O)[C@](C)(Cc1ccccc1F)NC(=O)[C@@H](NC(=O)CNC(=O)[C@H](CCC(=O)O)NC(=O)C(C)(C)NC(=O)[C@@H](N)Cc1ccc(O)cc1)[C@@H](C)O)[C@@H](C)O)[C@@H](C)CC)C(=O)N[C@@H](C)C(=O)N[C@@H](CCC(N)=O)C(=O)NC(C)(C)C(=O)N[C@@H](CCC(=O)O)C(=O)N[C@@H](Cc1ccccc1)C(=O)N[C@H](C(=O)N[C@@H](CCCCNC(=O)COCCOCCNC(=O)COCCOCCNC(=O)CC[C@H](NC(=O)COCCOCCNC(=O)CCCCCCCCCCCCC(=O)O)C(=O)O)C(=O)N[C@@](C)(Cc1ccc(O)cc1)C(=O)N[C@@H](CC(C)C)C(=O)N[C@H](C(=O)N[C@@H](CCCCNC(=O)COCCOCCNC(=O)COCCOCCNC(=O)CC[C@H](NC(=O)COCCOCCNC(=O)CCCCCCCCCCCCC(=O)O)C(=O)O)C(=O)NCC(=O)NCC(=O)N1CCC[C@H]1C(=O)N[C@@H](CO)C(=O)N[C@@H](CO)C(=O)NCC(=O)N[C@@H](C)C(=O)N1CCC[C@H]1C(=O)N1CCC[C@H]1C(=O)N1CCC[C@H]1C(=O)N[C@@H](CO)C(N)=O)[C@@H](C)CC)[C@@H](C)CC [Example 363]	91.1	111	0.0183	0.976	> 9950	> 9950	111	0.34	–	–
CC[C@H](C)[C@H](NC(=O)[C@H](CCCN)NC(=O)[C@H](CC(=O)O)NC(=O)[C@H](CC(C)C)NC(=O)[C@](C)(CC(C)C)NC(=O)[C@@H](NC(=O)C(C)(C)NC(=O)[C@H](Cc1ccc(O)cc1)NC(=O)[C@H](CC(=O)O)NC(=O)[C@H](CO)NC(=O)[C@@H](NC(=O)[C@](C)(Cc1ccccc1F)NC(=O)[C@@H](NC(=O)CNC(=O)[C@H](CCC(=O)O)NC(=O)C(C)(C)NC(=O)[C@@H](N)Cc1ccc(O)cc1)[C@@H](C)O)[C@@H](C)O)[C@@H](C)CC)C(=O)N[C@@H](C)C(=O)N[C@@H](CCC(N)=O)C(=O)NC(C)(C)C(=O)N[C@@H](CCC(=O)O)C(=O)N[C@@H](Cc1ccccc1)C(=O)N[C@H](C(=O)N[C@@H](CCCCNC(=O)COCCOCCNC(=O)CC[C@H](NC(=O)COCCOCCNC(=O)COCCOCCNC(=O)CCCCCCCCCCCCC(=O)O)C(=O)O)C(=O)N[C@@](C)(Cc1ccc(O)cc1)C(=O)N[C@@H](CC(C)C)C(=O)N[C@H](C(=O)N[C@@H](CCCCNC(=O)COCCOCCNC(=O)CC[C@H](NC(=O)COCCOCCNC(=O)COCCOCCNC(=O)CCCCCCCCCCCCC(=O)O)C(=O)O)C(=O)NCC(=O)NCC(=O)N1CCC[C@H]1C(=O)N[C@@H](CO)C(=O)N[C@@H](CO)C(=O)NCC(=O)N[C@@H](C)C(=O)N1CCC[C@H]1C(=O)N1CCC[C@H]1C(=O)N1CCC[C@H]1C(=O)N[C@@H](CO)C(N)=O)[C@@H](C)CC)[C@@H](C)CC [Example 364]	89.1	–	0.0111	–	> 9950	> 9950	–	0.347	13	–
CC[C@H](C)[C@H](NC(=O)[C@H](CCCN)NC(=O)[C@H](CC(=O)O)NC(=O)[C@H](CC(C)C)NC(=O)[C@](C)(CC(C)C)NC(=O)[C@@H](NC(=O)C(C)(C)NC(=O)[C@H](Cc1ccc(O)cc1)NC(=O)[C@H](CC(=O)O)NC(=O)[C@H](CO)NC(=O)[C@@H](NC(=O)[C@](C)(Cc1ccccc1F)NC(=O)[C@@H](NC(=O)CNC(=O)[C@H](CCC(=O)O)NC(=O)C(C)(C)NC(=O)[C@@H](N)Cc1ccc(O)cc1)[C@@H](C)O)[C@@H](C)O)[C@@H](C)CC)C(=O)N[C@@H](C)C(=O)N[C@@H](CCC(N)=O)C(=O)NC(C)(C)C(=O)N[C@@H](CCC(=O)O)C(=O)N[C@@H](Cc1ccccc1)C(=O)N[C@H](C(=O)N[C@@H](CCCCNC(=O)COCCOCCNC(=O)CC[C@H](NC(=O)COCCOCCNC(=O)CCCCCCCCCCCCC(=O)O)C(=O)O)C(=O)N[C@@](C)(Cc1ccc(O)cc1)C(=O)N[C@@H](CC(C)C)C(=O)N[C@H](C(=O)N[C@@H](CCCCNC(=O)COCCOCCNC(=O)CC[C@H](NC(=O)COCCOCCNC(=O)CCCCCCCCCCCCC(=O)O)C(=O)O)C(=O)NCC(=O)NCC(=O)N1CCC[C@H]1C(=O)N[C@@H](CO)C(=O)N[C@@H](CO)C(=O)NCC(=O)N[C@@H](C)C(=O)N1CCC[C@H]1C(=O)N1CCC[C@H]1C(=O)N1CCC[C@H]1C(=O)N[C@@H](CO)C(N)=O)[C@@H](C)CC)[C@@H](C)CC [Example 365]	93.5	105	0.00809	–	> 9950	> 9950	91	0.362	–	98.5
CC[C@H](C)[C@H](NC(=O)[C@H](CC(C)C)NC(=O)[C@](C)(Cc1ccc(O)cc1)NC(=O)[C@@H](CCC(=O)O)NC(=O)[C@@H](NC(=O)[C@H](Cc1ccccc1)NC(=O)[C@H](CCCCNC(=O)COCCOCCNC(=O)CC[C@H](NC(=O)CCCCCCCCCCCCC(=O)O)C(=O)O)NC(=O)C(C)(C)NC(=O)[C@H](CCC(N)=O)NC(=O)[C@H](C)NC(=O)[C@H](CCCCNC(=O)COCCOCCNC(=O)CC[C@H](NC(=O)CCCCCCCCCCCCC(=O)O)C(=O)O)NC(=O)[C@H](CCCN)NC(=O)[C@H](CC(=O)O)NC(=O)[C@H](CC(C)C)NC(=O)[C@](C)(CC(C)C)NC(=O)[C@@H](NC(=O)C(C)(C)NC(=O)[C@H](Cc1ccc(O)cc1)NC(=O)[C@H](CC(=O)O)NC(=O)[C@H](CO)NC(=O)[C@@H](NC(=O)[C@](C)(Cc1ccccc1F)NC(=O)[C@@H](NC(=O)CNC(=O)[C@H](CCC(=O)O)NC(=O)C(C)(C)NC(=O)[C@@H](N)Cc1ccc(O)cc1)[C@@H](C)O)[C@@H](C)O)[C@@H](C)CC)[C@@H](C)CC)C(=O)N[C@@H](CCC(=O)O)C(=O)NCC(=O)NCC(=O)N1CCC[C@H]1C(=O)N[C@@H](CO)C(=O)N[C@@H](CO)C(=O)NCC(=O)N[C@@H](C)C(=O)N1CCC[C@H]1C(=O)N1CCC[C@H]1C(=O)N1CCC[C@H]1C(=O)N[C@@H](CO)C(N)=O [Example 366]	95.9	–	0.0162	–	> 9950	> 9950	98.3	0.279	–	89.6
CC[C@H](C)[C@H](NC(=O)[C@H](CC(C)C)NC(=O)[C@](C)(Cc1ccc(O)cc1)NC(=O)[C@@H](CCC(=O)O)NC(=O)[C@@H](NC(=O)[C@H](Cc1ccccc1)NC(=O)[C@H](CCC(=O)O)NC(=O)C(C)(C)NC(=O)[C@H](CCC(N)=O)NC(=O)[C@H](C)NC(=O)[C@H](CCCCNC(=O)COCCOCCNC(=O)CC[C@H](NC(=O)CCCCCCCCCCCCC(=O)O)C(=O)O)NC(=O)[C@H](CCCN)NC(=O)[C@H](CC(=O)O)NC(=O)[C@H](CC(C)C)NC(=O)[C@](C)(CC(C)C)NC(=O)[C@@H](NC(=O)C(C)(C)NC(=O)[C@H](Cc1ccc(O)cc1)NC(=O)[C@H](CC(=O)O)NC(=O)[C@H](CO)NC(=O)[C@@H](NC(=O)[C@](C)(Cc1ccccc1F)NC(=O)[C@@H](NC(=O)CNC(=O)[C@H](CCC(=O)O)NC(=O)C(C)(C)NC(=O)[C@@H](N)Cc1ccc(O)cc1)[C@@H](C)O)[C@@H](C)O)[C@@H](C)CC)[C@@H](C)CC)C(=O)N[C@@H](CCCCNC(=O)COCCOCCNC(=O)CC[C@H](NC(=O)CCCCCCCCCCCCC(=O)O)C(=O)O)C(=O)NCC(=O)NCC(=O)N1CCC[C@H]1C(=O)N[C@@H](CO)C(=O)N[C@@H](CO)C(=O)NCC(=O)N[C@@H](C)C(=O)N1CCC[C@H]1C(=O)N1CCC[C@H]1C(=O)N1CCC[C@H]1C(=O)N[C@@H](CO)C(N)=O [Example 367]	–	112	0.019	–	> 9950	–	–	0.366	–	93.9
